Assay [1] in a line: Liposome permeabilization (sulforhodamine B dye leakage) assay. Format: biochemical. On the procedure: For unilamellar liposome preparation, a total of 100 μL of 30 mM 1,2-dioleoyl-sn-glycero-3-phosphocholine (DOPC; Avanti Polar Lipids) and the following lipids dissolved in chloroform were mixed in a glass tube in the appropriate ratio: POPG (Avanti Polar Lipids), POPE (Avanti Polar Lipids), POPS (Avanti Polar Lipids), and purified S. aureus LTA (InvivoGen, catalog # tlrl-pslta). The solvent was evaporated under a stream of nitrogen gas and the glass vial was placed in a vacuum desiccator overnight. A total of 1 mL HEPES-Buffered Saline (HBS) composed of 5 mM HEPES (pH 7.6) and 150 mM NaCl, and 30 mM sulforhodamine B (SRB) was added to each vial. The lipid solution was vortexed for 10 min and lipids were hydrated by five freeze–thaw cycles with liquid N2. The lipid solution was diluted with HBS buffer to 3 mL and the solution was passed 29 times through a mini extruder (Avanti Polar Lipids) with a filter of […] pore diameter to form lipid vesicles of homogeneous size. The extruded solution was passed through Sephadex 50 resin to remove the free sulforhodamine B (liposomes eluted faster than the dye). The size of the liposomes was tested using dynamic light scattering (DLS, Malvern Zetasizer, Dr. Catherine J. Murphy lab, Department of Chemistry, UIUC) and analyzed using Zetasizer software. The DLS data quality was interpreted by the instrument through its embedded algorithm to confirm the data quality. The polydispersity index (PDI), which measures the size distributions was used to monitor the quality of the liposomes. The small PDI indices obtained from DLS readings indicate that the liposomes were monodisperse ([Farkas and Kramar, 2021]). The total lipid concentration was measured with NMR spectroscopy using a reported method ([Hein et al., 2016]). The vesicles were stored at 4°C and used within 1–2 days.
For the dye leakage assay, 100 μL SRB-loaded liposomes (80 μM lipid; 100–200 nm size) were placed in each well in a 96-well microplate. Fluorescence of SRB-loaded liposomes was monitored over time on a Synergy H4 Hybrid Multi-Mode Microplate Reader (BioTeK) using λEx at […]. To each well, a different concentration of peptides or 0.02% triton X-100 was added 5 min after adding liposomes. Liposomes supplied with water were treated as the negative control. The fluorescence emission was measured every 15 s for 2 h. Fluorescence counts were recorded as % leakage and plotted as a function of time. The concentration of epilancin 15X where the SRB leaked from the liposomes reached half of the triton X-100 leakage was recorded as C1/2, and C1/2 values were plotted against DOPC and supplemented lipid concentrations.
In general terms: In SRB staining, fixed cells bind dye roughly in proportion to their protein.

A further assay has as its system B. subtilis ATCC 6633. The experiment in a line: Fluorescence and bright field (Airyscan) microscopy. Format: cell-based, Bacillus subtilis. The procedure: Standard microscope slides coated with poly-D-lysine (R&D Systems, 34–392 − 000101) overnight were washed with water and sterilized in ethanol. Overnight bacterial culture was centrifuged at 4,500 ×g and the pellet was resuspended gently three times in fresh PBS to remove the media background. Then 20 μL of cell culture in PBS and 180 μL of PBS were loaded on each slide and incubated at room temperature for 30 min. Next, 1 mL of PBS was used to wash the slides at least five times to remove unadhered cells. A final concentration of 200 nM epilancin 15X-TAMRA in 200 μL of PBS was applied to each slide and incubated at room temperature for 30 min. PBS was used to wash the slides at least five times to wash away unbound Epilancin 15X. A final concentration of 10% formaldehyde (Thermo Scientific, PI28906) and 2.5% glutaraldehyde (Fisher Chemical, O2957–1) in PBS was applied to each slide and incubated for 30 min. Three times 1 mL of PBS was applied to wash away excess fixing solution. A drop of ProLong Glass Antifade Mountant (Invitrogen, P36982) was applied to each slide, covered with a glass coverslip (Ibidi, NC0601315), and dried overnight protected from light. All micrographs were captured using a Zeiss LSM 880 Airyscan microscope (Carl R. Woese Institute for Genomic Biology, UIUC). […]

These results are taken from publication PMC10652874, “Investigation into the mechanism of action of the antimicrobial peptide epilancin 15X” (Frontiers in Microbiology, 2023).

Some results are limits rather than exact numbers.

On to Epilancin 15X, for which the EC50 in assay [1] (DOPC liposomes supplemented with POPE, highest concentration tested 64 µM, read-out: C1/2 (concentration giving 50% of triton X-100 leakage)) was over 64 µM. Further, in assay [1] (DOPC liposomes with negatively charged lipids LTA, POPS, POPG), the “fluorescence emission from SRB dye leakage” value is listed as “increased”. Besides, the “SRB dye leakage from DOPC liposomes” value in assay [1] (DOPC only, 80 μM lipid, epilancin 15X up to 64 μM, fluorescence over 2 h) is on record as “not detected”. Also, the “C1/2 values as a function of supplemented lipid concentration” value in assay [1] (negatively charged lipids S. aureus LTA, POPG, POPS) is “negative slope”. The “SRB dye leakage from DOPC liposomes doped with POPE” value in assay [1] (neutral lipid POPE) is “not detected”. For the same substance, the “liposome leakage as a function of supplemented lipid concentration” value in assay [1] (neutral lipids POPC and POPE) is “no change in liposome leakage”. Further, the “aggregation phenotype of cells (brightfield)” value with B. subtilis ATCC 6633 was “Aggregation and chaining of cells was observed”.
